In assay [1] the test system is K562 (human chronic myelogenous leukaemia). Put plainly: MTT cytotoxicity assay, leukemic cell line K562. Format: cell-based. As to conditions: Homo sapiens, K562, 72 h, three days. An excerpt:
(§1) Cytotoxicity of the compounds is the major property determining their antileukemic efficacy in vivo. One of the parameters used, as the basis for cytotoxicity assays, is the metabolic activity of viable cells. For example, a microtiter assay, which uses (3-(4,5-dimethylthiazol-2-yl)-2,5-diphenyltetrazolium bromide (MTT), is widely used to quantitate cell proliferation and cytotoxicity. This assay is widely used in drug screening programs and in chemosensitivity testing. Because only metabolically active living cells reduce MTT to correspond purple formazan dye, these assays detect viable cells exclusively. The quantity of reduced MTT corresponds to the number of vital cells in the culture.
(§2) The compounds were assayed using the following leukemic cell lines: K562 (human chronic myelogenous leukaemia), HL60 (human promyelocytic leukaemia), CEM (human lymphoblastoid leukaemia), THP1 (human monocytic cell line), MV4; 11 (acute myelocytic leukemia). All cell lines were grown in RPMI medium supplemented with fetal bovine serum and L-glutamine and maintained at 37° C. in a humidified atmosphere with 5% CO2. For cytotoxicity assays, 2000-5000 cells were seeded into each well of 96 well plate, allowed to stabilize for at least 8 h and then tested compounds were added at various concentrations ranging from 100 to 0.01 μM in triplicates. After three days, MTT solution (5 mg/ml; Sigma, St. Louis, USA) was added to cells and medium was replaced with DMSO after five hours. The absorbance was measured at 620 nm by employing a microplate reader. MTT assays were repeated 3 times for each drug application and untreated cells were used as reference.

Assay [2] deals with HL60 (human promyelocytic leukaemia). Put plainly: MTT cytotoxicity assay, leukemic cell line HL60. Format: cell-based. The settings on record: Homo sapiens, HL-60, 72 h, three days.
Source text: as §1, §2

The subject of assay [3] is CEM (human lymphoblastoid leukaemia). Put plainly: MTT cytotoxicity assay, leukemic cell line CEM. Format: cell-based. As to conditions: Homo sapiens, 72 h, three days.
Source text: as §1, §2

Assay [4] relates to THP1 (human monocytic cell line). Put plainly: MTT cytotoxicity assay, leukemic cell line THP1. Format: cell-based. As to conditions: Homo sapiens, THP-1, 72 h, three days.
Source text: as §1, §2

For assay [5], the system named is MV4;11 (acute myelocytic leukemia). Put plainly: MTT cytotoxicity assay, leukemic cell line MV4;11. Format: cell-based. The settings on record: Homo sapiens, MV4-11, 72 h, three days.
Source text: as §1, §2

Assay [6] has as its system G361 (malignant melanoma). Put plainly: MTT cytotoxicity assay, solid cancer cell line G361. The format is cell-based. The settings on record: Homo sapiens, G-361, 72 h, three days. As to the method:
as §2, with “following” for “following leukemic”, “G361 (malignant melanoma), MCF7 (breast adenocarcinoma), PLC/PRF/5 (liver hepatoma), PANC-1 (pancreatic carcinoma) and HCT116 (colon carcinoma).” for “K562 (human chronic myelogenous leukaemia), HL60 (human promyelocytic leukaemia), CEM (human lymphoblastoid leukaemia), THP1 (human monocytic cell line), MV4; 11 (acute myelocytic leukemia).”, “DMEM” for “RPMI”, “4000-10000” for “2000-5000”, “of a” for “of”, “16” for “8”

Assay [7] relates to MCF7 (breast adenocarcinoma). In words: MTT cytotoxicity assay, solid cancer cell line MCF7. Format: cell-based. The settings on record: Homo sapiens, MCF7, 72 h, three days. As for the experimental part:
as §2, with “following” for “following leukemic”, “G361 (malignant melanoma), MCF7 (breast adenocarcinoma), PLC/PRF/5 (liver hepatoma), PANC-1 (pancreatic carcinoma) and HCT116 (colon carcinoma).” for “K562 (human chronic myelogenous leukaemia), HL60 (human promyelocytic leukaemia), CEM (human lymphoblastoid leukaemia), THP1 (human monocytic cell line), MV4; 11 (acute myelocytic leukemia).”, “DMEM” for “RPMI”, “4000-10000” for “2000-5000”, “of a” for “of”, “16” for “8”

The test system of assay [8] is PLC/PRF/5 (liver hepatoma). In words: MTT cytotoxicity assay, solid cancer cell line PLC/PRF/5. Format: cell-based. As to conditions: Homo sapiens, PLC-PRF-5, 72 h, three days. As for the experimental part:
as §2, with “following” for “following leukemic”, “G361 (malignant melanoma), MCF7 (breast adenocarcinoma), PLC/PRF/5 (liver hepatoma), PANC-1 (pancreatic carcinoma) and HCT116 (colon carcinoma).” for “K562 (human chronic myelogenous leukaemia), HL60 (human promyelocytic leukaemia), CEM (human lymphoblastoid leukaemia), THP1 (human monocytic cell line), MV4; 11 (acute myelocytic leukemia).”, “DMEM” for “RPMI”, “4000-10000” for “2000-5000”, “of a” for “of”, “16” for “8”

Assay [9] relates to PANC-1 (pancreatic carcinoma). Put plainly: MTT cytotoxicity assay, solid cancer cell line PANC-1. Format: cell-based. As to conditions: Homo sapiens, PANC-1, 72 h, three days. As to the method:
as §2, with “following” for “following leukemic”, “G361 (malignant melanoma), MCF7 (breast adenocarcinoma), PLC/PRF/5 (liver hepatoma), PANC-1 (pancreatic carcinoma) and HCT116 (colon carcinoma).” for “K562 (human chronic myelogenous leukaemia), HL60 (human promyelocytic leukaemia), CEM (human lymphoblastoid leukaemia), THP1 (human monocytic cell line), MV4; 11 (acute myelocytic leukemia).”, “DMEM” for “RPMI”, “4000-10000” for “2000-5000”, “of a” for “of”, “16” for “8”

Assay [10] relates to HCT116 (colon carcinoma). Put plainly: MTT cytotoxicity assay, solid cancer cell line HCT116. The format is cell-based. As to conditions: Homo sapiens, HCT-116, 72 h, three days. As for the experimental part:
as §2, with “following” for “following leukemic”, “G361 (malignant melanoma), MCF7 (breast adenocarcinoma), PLC/PRF/5 (liver hepatoma), PANC-1 (pancreatic carcinoma) and HCT116 (colon carcinoma).” for “K562 (human chronic myelogenous leukaemia), HL60 (human promyelocytic leukaemia), CEM (human lymphoblastoid leukaemia), THP1 (human monocytic cell line), MV4; 11 (acute myelocytic leukemia).”, “DMEM” for “RPMI”, “4000-10000” for “2000-5000”, “of a” for “of”, “16” for “8”

For assay [11], the target named is T1, CDK5/p35 (Homo sapiens, UniProt Q00535).
T1 construct: purchased ProQinase GmbH
T1 sequence (Q00535 whole entry): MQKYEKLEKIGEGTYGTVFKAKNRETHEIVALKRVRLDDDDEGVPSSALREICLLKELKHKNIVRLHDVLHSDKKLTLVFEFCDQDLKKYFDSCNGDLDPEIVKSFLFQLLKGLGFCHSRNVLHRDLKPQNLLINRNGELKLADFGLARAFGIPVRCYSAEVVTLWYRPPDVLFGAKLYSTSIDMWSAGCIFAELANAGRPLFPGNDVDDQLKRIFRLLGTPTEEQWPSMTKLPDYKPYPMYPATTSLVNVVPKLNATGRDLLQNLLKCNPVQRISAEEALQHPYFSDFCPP
T1 sequence (Q15078 whole entry partner): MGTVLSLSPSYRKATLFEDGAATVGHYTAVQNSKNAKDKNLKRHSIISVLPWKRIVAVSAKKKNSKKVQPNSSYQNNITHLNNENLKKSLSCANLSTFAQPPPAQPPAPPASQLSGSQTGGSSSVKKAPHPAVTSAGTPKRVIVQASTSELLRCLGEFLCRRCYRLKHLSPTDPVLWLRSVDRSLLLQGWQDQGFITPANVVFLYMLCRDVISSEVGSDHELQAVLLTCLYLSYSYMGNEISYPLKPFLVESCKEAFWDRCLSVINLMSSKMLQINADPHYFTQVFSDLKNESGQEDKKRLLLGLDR
Put plainly: CDK5/p35 kinase inhibition (33P-ATP, histone H1). Format: biochemical. The settings on record: 0.15 μM ATP. As to the method:
CDK2/Cyclin E kinase was produced in Sf9 insect cells via baculoviral infection and purified on a NiNTA column (Qiagen). […] CDK5/p35 was purchased from ProQinase GmbH.
(§3) The reactions were stopped by adding 5 μL of 3% aq H3PO4. Aliquots were spotted onto P-81 phosphocellulose (Whatman), washed 3× with 0.5% aq H3PO4 and finally air-dried.

Assay [12] relates to caspases 3 and 7 in K562 cells. In words: Caspase-3/7 activity assay in K562 cells. The format is cell-based, human. As to conditions: 24 hours, FIG. 2. As to the method: Measurement of proapoptotic properties of new compounds was based on quantification of enzymatic activities of caspases-3/7. Activity of cellular caspase-3/7 was measured according to Carrasco et al., 2003, BioTechniques, 34(5): 1064-67. Briefly, the cells were incubated in a 96-well plate overnight. Next day, the compounds in appropriate concentrations were added and cells were incubated for 24 hours. After incubation, 3× caspase-3/7 assay buffer (150 mM HEPES pH 7.4, 450 mM NaCl, 150 mM KCl, 30 mM MgCl2, 1.2 mM EGTA, 1.5% Nonidet P40, 0.3% CHAPS, 30% sucrose, 30 mM DTT, 3 mM PMSF) with 150 μM Ac-DEVD-AMC as a substrate (Sigma-Aldrich) was added to the wells and plates were incubated at 37° C. […]. The caspase activity was measured using Fluoroskan Ascent microplate reader (Labsystems) at 346 nm/442 nm (excitation/emission).

Assay [13] has as its system HUVECs (human umbilical vein endothelial cells). In words: HUVEC proliferation assay (crystal violet). Format: cell-based. As to conditions: Homo sapiens, HUVEC, 72 h, read-out: Inhibition of proliferation (EC50). As for the experimental part: (§4) To verify that novel compounds have anti-vascularisation properties, we analyzed their influence on the proliferation and migration of HUVECs. HUVECs (human umbilical vein endothelial cells) were purchased from Promocell (Heidelberg, Germany) and cultured in endothelial cell growth medium (ECGM, Promocell, Heidelberg, Germany) containing 10% FCS (Biochrom, Berlin, Germany). Experiments were performed using cells at passage 3.
For proliferation assay, 1.5×10^3 HUVECs were cultured for 24 h. Afterwards, cells were either left untreated or treated with novel compounds for 72 h. Proliferation assay was performed using crystal violet as described previously (Koltermann et al. 2007, Cell Mol. Life Sci. 64:1715-1722).

The test system is the same in assay [14]. Put plainly: HUVEC migration (scratch) assay. The settings on record: 16 h, read-out: Inhibition of migration (EC50). The format is cell-based. As for the experimental part: as §4
For migration assay, confluent HUVECs were scratched with a pipette tip and immediately treated with either starvation medium M199 (serum-free, negative control; PAN Biotech) or full endothelial cell growth medium (positive control). After 16 h, cells were fixed with 3% formaldehyde and images were taken using the TILLvisON system (Lochham, Germany) connected to an Axiovert 200 microscope (Zeiss, Germany). Evaluation of pictures was made by S.CO LifeScience (Garching, Germany). Migration was quantified as the ratio of the area covered with cells and the area of the cell free wound.

In assay [15] the test system is breast carcinoma cell line MCF7. In words: Cell cycle profile by BrdU/propidium iodide flow cytometry. The format is cell-based. As to conditions: asynchronously growing MCF7, 24 h, FIG. 1. As to the method:
Sub-confluent cells were treated with test compounds at different concentrations for 24 h. The cultures were pulse-labeled with […] 5-bromo-20-deoxyuridine (BrdU) for 30 min at 37° C. prior to harvesting. The cells were then washed in PBS, fixed with 70% ethanol, and denatured in 2 M HCl. Following neutralization, the cells were stained with anti-BrdU fluorescein-labeled antibodies, washed, stained with propidium iodide and analyzed by flow cytometry using a 488 nm laser

For assay [16], the target named is T2, CDK2/Cyclin E (Homo sapiens, UniProt P24941).
T2 construct: made in house; host or cells: Sf9 insect cells (baculovirus)
In words: CDK2/Cyclin E kinase inhibition (33P-ATP, histone H1). As to conditions: 15 μM ATP. The format is biochemical. As for the experimental part: CDK2/Cyclin E kinase was produced in Sf9 insect cells via baculoviral infection and purified on a NiNTA column (Qiagen). The kinase reactions were assayed with 1 mg/mL histone H1 in the presence of 15 μM ATP, 0.05 μCi [γ-^33P]ATP and of the test compound in a final volume of 10 μL, all in a reaction buffer (60 mM HEPES-NaOH, pH 7.5, 3 mM MgCl2, 3 mM MnCl2, 3 μM Na-orthovanadate, 1.2 mM DTT, 2.5 μg/50 μl PEG20.000). CDK5/p35 was purchased from ProQinase GmbH. The kinase reactions were assayed with 1 mg/mL histone H1 in the presence of 0.15 μM ATP, 0.05 μCi [γ-^33P]ATP and of the test compound in a final volume of 10 μL, all in a reaction buffer (60 mM HEPES-NaOH, pH 7.5, 3 mM MgCl2, 3 mM MnCl2, 3 μM Na-orthovanadate, 1.2 mM DTT, 2.5 μg/50 μl PEG20.000).
as §3

pEC50: −log10 of the molar value.

Here are results for 3 compounds from patent US9957273B2, “5-substituted 7- [4-(2-pyridyl)phenylmethylamino] -3-isopropylpyrazolo4,3-D]pyrimidine derivatives, use thereof as medicaments, and pharmaceutical compositions” (USTAV EXPERIMENTALNI BOTANIKY AV CR, V.V.I., priority 2015, dated 2018).

For `CC(C)c1[nH]nc2c(NCc3ccc(-c4ccccn4)cc3)nc(NCC(C)(C)O)nc12` [Compound 33], the IC50 was 0.03 µM in assay [1]; 0.02 µM in assay [2]; 0.01 µM in [3]; 0.01 µM in assay [4]; 0.07 µM in [5]; 0.03 µM in [6]. The IC50 in [7] amounted to 0.02 µM; in assay [8], 0.05 µM; in [9], 0.01 µM; in assay [10], 0.04 µM; in [11], 0.001 µM. In addition, the “caspase-3/7 activity in K562 cells” value in [12] was “potent dose-dependent activation of the caspases in nanomolar concentrations”. In addition, the pEC50 was 7.85 in assay [13] and 7.66 in assay [14].
Turning to `CC(C)c1[nH]nc2c(NCc3ccc(-c4ccccn4)cc3)nc(NCCN(C)C)nc12` [Compound 47], the IC50 in [1] was 0.13 µM; in assay [2], 0.09 µM; in assay [3] it was 0.07 µM; in assay [4], 0.06 µM; in [5], 0.12 µM; in assay [6] it was 0.47 µM. Further, the IC50 in assay [7] worked out at 0.23 µM; in assay [8], 0.24 µM; in assay [9], 0.2 µM; in assay [10], 0.34 µM; in assay [11] it was 2.14 µM. In addition, in [15], the “effect on the cell cycle of MCF7” value is “potently arrested cells in S, G2 and M phases”. In [13], the pEC50 is 6.74.
Compound `CC[C@@H](CO)Nc1nc(NCc2ccc(-c3ccccn3)cc2)c2n[nH]c(C(C)C)c2n1` [Compound 84] gave an IC50 in [16] of 0.098 µM. Besides, the “effect on the cell cycle of MCF7” value in [15] was “potently arrested cells in S, G2 and M phases”.
